Test system: PARP, caspase-7 and caspase-8 processing
Test: Western blot of apoptotic biomarkers
Assay type: cell-based, human
Conditions: 458 nm irradiation, 72 h
Excerpt: Its effects on apoptotic biochemical markers by Western blotting analysis in MCF7/FasR cells and its Bcl-xL-overexpressed counterpart in comparison with the apoptotic inducer TNFα were examined (Figure 13). Cleavage-mediated inactivation of DNA repair enzyme poly(ADP-ribose) polymerase (PARP) by executioner caspases (e.g., caspase-3, caspase-7) has been considered as a marker of apoptotic cell death. The treatment with TNFα was associated with the proteolytic cleavage of PARP (decreased in 113 kDa full-length, increased in apoptotic 89 kDa fragment) in MCF7/FasR cells (Figure 13A). Since the MCF7 cell line lacks caspase-3 due to the functional deletion of the CASP-3 gene, caspase-7 is the only executioner caspase in these cells, as evidenced by the decreased content in the 35 kDa full-length pro-caspase-7 observed upon TNFα treatment (Figure 13A). The upstream caspase-8 that can directly process caspase-7 (extrinsic pathway) was also activated (loss of 55 kDa full-length pro-caspase-8). […] Importantly, the overexpression of Bcl-xL had no effect on apoptotic markers, regardless of the concentration of complex 4a used, implying that a MOMP-dependent mechanism is unlikely to be involved. In parallel experiments, cell viability and quantification of ATP and GSH levels were assessed. […] The early transient elevation of cytosolic ATP level is a necessary condition for the apoptotic cell death process, followed by a drop that correlates with the time course of cell death. […]
We next evaluated the effect of the pan-caspase inhibitor z-VAD-fmk on caspase signaling. […]
Cell lysate preparation and Western blotting were carried out as previously described. […] Proteins were visualized by ECL (Clarity Western ECL Substrate, Bio-Rad, Marnes-la-Coquette, France) using anti-rabbit or anti-mouse HRP-conjugated IgG (Bio-Rad); analysis of Western blots was assessed with a ChemiDoc imaging system (Bio-Rad).
Figure 13 Evaluation of apoptotic biomarkers. […] (B) MTT, ATP and GSH assays were evaluated in duplicate samples. […]

In the case of CC(C)[n+]1ccn2[c]1[Ir-3]13([c]4ccccc4-c4cccc[n+]41)([c]1ccccc1-c1cccc[n+]13)[c]1n(cc[n+]1C(C)C)C2.F[P-](F)(F)(F)(F)F [Complex 4a], the “processing of PARP, caspase-7 and caspase-8 at GI50 concentration” value (50 nM, MCF7/FasR and MCF7/FasR/Bcl-xL) is reported as “no processing of PARP, caspase-7 and caspase-8 were observed”, the “processing of PARP, caspase-7 and caspase-8 at high concentration” value (250 nM and 1 µM, MCF7/FasR) is reported as “cleavage of PARP and processing of caspase-7 and caspase-8” and the “procaspase-7 expression and PARP activation” value (500 nM, MCF7/FasR) is reported as “significant loss of procaspase-7 expression”.

Reference: article PMC9861386, “N-Heterocyclic Carbene-Iridium Complexes as Photosensitizers for In Vitro Photodynamic Therapy to Trigger Non-Apoptotic Cell Death in Cancer Cells” (Molecules, 2023)
